The test system of one experiment is HCC-827. Description: relative viability (nuclei count vs DMSO), 5 days (fraction); higher = more cells survive. The settings on record: first compound 8 µM. An outline of the steps:
(§1)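 Values are medians from duplicate plates. Each reflects relative viability, defined as the nuclei count of treated wells over that of vehicle wells. Lung cancer cell lines in 1536-well plates were pin-tool dosed one day after seeding with one drug alone or with a fixed anchor-drug dose plus five library-drug doses (not always all listed) in √10 steps, then fixed, stained and imaged at 4× after 5 days.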
For the compound `Nc1cccc2c1CN(C1CCC(=O)NC1=O)C2=O` (stereo not given) [Lenalidomide] + CC(=O)c1c(C)c2cnc(Nc3ccc(N4CCNCC4)cn3)nc2n(C2CCCC2)c1=O [Palbociclib] (partner 0.5 µM), the relative viability turned out to be 0.489.
On the same count and under the same terms, the same measure for `Nc1cccc2c1CN(C1CCC(=O)NC1=O)C2=O` (stereo not given) [Lenalidomide] + O=C(CCCCCCC(=O)Nc1ccccc1)NO [Vorinostat] (partner 1 µM): 1.06; for `Nc1cccc2c1CN(C1CCC(=O)NC1=O)C2=O` (stereo not given) [Lenalidomide] + COc1cccc2cc(-c3nc([C@H]4CC[C@H](C(=O)O)CC4)n4ncnc(N)c34)[nH]c12 [OSI-027] (partner 0.5 µM): 0.831.

The test system of a further experiment is LC-2-ad. The experiment is described as above. The settings on record: first compound 0.253 µM. In a few lines: as §1
On to `Nc1cccc2c1CN(C1CCC(=O)NC1=O)C2=O` (stereo not given) [Lenalidomide] + N=C(N)NC(=N)NCCc1ccccc1 [Phenformin] (partner 250 µM), for which the relative viability was found to be 0.567.
Same read-out and setting: the same measure for `Nc1cccc2c1CN(C1CCC(=O)NC1=O)C2=O` (stereo not given) [Lenalidomide] + Cc1cc(Nc2cc(N3CCN(C)CC3)nc(Sc3ccc(NC(=O)C4CC4)cc3)n2)n[nH]1 [Tozasertib] (partner 0.1 µM): 0.538.
In the case of `Nc1cccc2c1CN(C1CCC(=O)NC1=O)C2=O` (stereo not given) [Lenalidomide] + CC(=O)c1c(C)c2cnc(Nc3ccc(N4CCNCC4)cn3)nc2n(C2CCCC2)c1=O [Palbociclib] (partner 0.5 µM), the relative viability stood at 0.549.
Still for that read-out and setting: the same measure for `Nc1cccc2c1CN(C1CCC(=O)NC1=O)C2=O` (stereo not given) [Lenalidomide] + O=C(CCCCCCC(=O)Nc1ccccc1)NO [Vorinostat] (partner 1 µM): 0.733; for `Nc1cccc2c1CN(C1CCC(=O)NC1=O)C2=O` (stereo not given) [Lenalidomide] + COc1cccc2cc(-c3nc([C@H]4CC[C@H](C(=O)O)CC4)n4ncnc(N)c34)[nH]c12 [OSI-027] (partner 0.5 µM): 0.856.

The experiment is the same for the next values; noted with them: first compound 0.8 µM.
In the case of `Nc1cccc2c1CN(C1CCC(=O)NC1=O)C2=O` (stereo not given) [Lenalidomide] + CC(=O)c1c(C)c2cnc(Nc3ccc(N4CCNCC4)cn3)nc2n(C2CCCC2)c1=O [Palbociclib] (partner 0.5 µM), the relative viability came out at 0.551.
Same read-out and setting: with `Nc1cccc2c1CN(C1CCC(=O)NC1=O)C2=O` (stereo not given) [Lenalidomide] + O=C(CCCCCCC(=O)Nc1ccccc1)NO [Vorinostat] (partner 1 µM) the figure was 0.643.

The same experiment, now with this note: first compound 2.53 µM.
The compound `Nc1cccc2c1CN(C1CCC(=O)NC1=O)C2=O` (stereo not given) [Lenalidomide] + N=C(N)NC(=N)NCCc1ccccc1 [Phenformin] (partner 250 µM) registered a relative viability of 0.64.
Regarding `Nc1cccc2c1CN(C1CCC(=O)NC1=O)C2=O` (stereo not given) [Lenalidomide] + Cc1cc(Nc2cc(N3CCN(C)CC3)nc(Sc3ccc(NC(=O)C4CC4)cc3)n2)n[nH]1 [Tozasertib] (partner 0.1 µM), the relative viability came to 0.469.
For the compound `Nc1cccc2c1CN(C1CCC(=O)NC1=O)C2=O` (stereo not given) [Lenalidomide] + CC(=O)c1c(C)c2cnc(Nc3ccc(N4CCNCC4)cn3)nc2n(C2CCCC2)c1=O [Palbociclib] (partner 0.5 µM), the relative viability came out at 0.533.
Still for that read-out and setting: the same measure for `Nc1cccc2c1CN(C1CCC(=O)NC1=O)C2=O` (stereo not given) [Lenalidomide] + O=C(CCCCCCC(=O)Nc1ccccc1)NO [Vorinostat] (partner 1 µM): 0.718; for `Nc1cccc2c1CN(C1CCC(=O)NC1=O)C2=O` (stereo not given) [Lenalidomide] + COc1cccc2cc(-c3nc([C@H]4CC[C@H](C(=O)O)CC4)n4ncnc(N)c34)[nH]c12 [OSI-027] (partner 0.5 µM): 0.912.

Still in this experiment, the particulars now being: first compound 8 µM.
Consider `Nc1cccc2c1CN(C1CCC(=O)NC1=O)C2=O` (stereo not given) [Lenalidomide] + N=C(N)NC(=N)NCCc1ccccc1 [Phenformin] (partner 250 µM), for which the relative viability is 0.585.
The same measure, in the same setting: with `Nc1cccc2c1CN(C1CCC(=O)NC1=O)C2=O` (stereo not given) [Lenalidomide] + Cc1cc(Nc2cc(N3CCN(C)CC3)nc(Sc3ccc(NC(=O)C4CC4)cc3)n2)n[nH]1 [Tozasertib] (partner 0.1 µM) the figure was 0.469.
Consider `Nc1cccc2c1CN(C1CCC(=O)NC1=O)C2=O` (stereo not given) [Lenalidomide] + CC(=O)c1c(C)c2cnc(Nc3ccc(N4CCNCC4)cn3)nc2n(C2CCCC2)c1=O [Palbociclib] (partner 0.5 µM), for which the relative viability came out at 0.531.
Same read-out and setting: with `Nc1cccc2c1CN(C1CCC(=O)NC1=O)C2=O` (stereo not given) [Lenalidomide] + O=C(CCCCCCC(=O)Nc1ccccc1)NO [Vorinostat] (partner 1 µM) the figure was 0.735; with `Nc1cccc2c1CN(C1CCC(=O)NC1=O)C2=O` (stereo not given) [Lenalidomide] + COc1cccc2cc(-c3nc([C@H]4CC[C@H](C(=O)O)CC4)n4ncnc(N)c34)[nH]c12 [OSI-027] (partner 0.5 µM), 0.887.

Another experiment relates to LCLC-103H. The experiment is described as above. The settings on record: first compound 0.253 µM. An outline of the steps:
as §1
Turning to `Nc1cccc2c1CN(C1CCC(=O)NC1=O)C2=O` (stereo not given) [Lenalidomide] + N=C(N)NC(=N)NCCc1ccccc1 [Phenformin] (partner 250 µM), the relative viability turned out to be 0.364.
`Nc1cccc2c1CN(C1CCC(=O)NC1=O)C2=O` (stereo not given) [Lenalidomide] + Cc1cc(Nc2cc(N3CCN(C)CC3)nc(Sc3ccc(NC(=O)C4CC4)cc3)n2)n[nH]1 [Tozasertib] (partner 0.1 µM) displayed a relative viability of 0.47.
The same measure, in the same setting: the same measure for `Nc1cccc2c1CN(C1CCC(=O)NC1=O)C2=O` (stereo not given) [Lenalidomide] + CC(=O)c1c(C)c2cnc(Nc3ccc(N4CCNCC4)cn3)nc2n(C2CCCC2)c1=O [Palbociclib] (partner 0.5 µM): 0.484; for `Nc1cccc2c1CN(C1CCC(=O)NC1=O)C2=O` (stereo not given) [Lenalidomide] + O=C(CCCCCCC(=O)Nc1ccccc1)NO [Vorinostat] (partner 1 µM): 0.761; for `Nc1cccc2c1CN(C1CCC(=O)NC1=O)C2=O` (stereo not given) [Lenalidomide] + COc1cccc2cc(-c3nc([C@H]4CC[C@H](C(=O)O)CC4)n4ncnc(N)c34)[nH]c12 [OSI-027] (partner 0.5 µM): 0.433.

Still in this experiment, the particulars now being: first compound 0.8 µM.
As to `Nc1cccc2c1CN(C1CCC(=O)NC1=O)C2=O` (stereo not given) [Lenalidomide] + N=C(N)NC(=N)NCCc1ccccc1 [Phenformin] (partner 250 µM), the relative viability stood at 0.327.
On to `Nc1cccc2c1CN(C1CCC(=O)NC1=O)C2=O` (stereo not given) [Lenalidomide] + Cc1cc(Nc2cc(N3CCN(C)CC3)nc(Sc3ccc(NC(=O)C4CC4)cc3)n2)n[nH]1 [Tozasertib] (partner 0.1 µM), for which the relative viability is 0.517.
Same read-out and setting: the same measure for `Nc1cccc2c1CN(C1CCC(=O)NC1=O)C2=O` (stereo not given) [Lenalidomide] + CC(=O)c1c(C)c2cnc(Nc3ccc(N4CCNCC4)cn3)nc2n(C2CCCC2)c1=O [Palbociclib] (partner 0.5 µM): 0.459; for `Nc1cccc2c1CN(C1CCC(=O)NC1=O)C2=O` (stereo not given) [Lenalidomide] + O=C(CCCCCCC(=O)Nc1ccccc1)NO [Vorinostat] (partner 1 µM): 0.679; for `Nc1cccc2c1CN(C1CCC(=O)NC1=O)C2=O` (stereo not given) [Lenalidomide] + COc1cccc2cc(-c3nc([C@H]4CC[C@H](C(=O)O)CC4)n4ncnc(N)c34)[nH]c12 [OSI-027] (partner 0.5 µM): 0.433.

Values taken from the supplement of paper PMC10307832.
